According to patent US20180179174A1, “12H-BENZO[b]XANTHEN-12-ONES, COMPOSITIONS CONTAINING, AND USES OF, SAME” (Thesan Pharmaceuticals, Inc., priority 2015, published 2018):

Assays:
[1] = target: T1, Aryl Hydrocarbon Receptor (Homo sapiens, UniProt P35869); experiment: AhR activation, luciferase reporter (plox-XRE TATA-Luc) in normal human keratinocytes; format: cell-based; settings: NHK-plox-XRE TATA-Luc cells, 24 h, 1-10 uM
T1 construct: endogenous in cells; host or cells: normal human keratinocytes (NHK) transduced with the reporter lentivector plox-XRE TATA-Luc
T1 sequence (P35869 11-848): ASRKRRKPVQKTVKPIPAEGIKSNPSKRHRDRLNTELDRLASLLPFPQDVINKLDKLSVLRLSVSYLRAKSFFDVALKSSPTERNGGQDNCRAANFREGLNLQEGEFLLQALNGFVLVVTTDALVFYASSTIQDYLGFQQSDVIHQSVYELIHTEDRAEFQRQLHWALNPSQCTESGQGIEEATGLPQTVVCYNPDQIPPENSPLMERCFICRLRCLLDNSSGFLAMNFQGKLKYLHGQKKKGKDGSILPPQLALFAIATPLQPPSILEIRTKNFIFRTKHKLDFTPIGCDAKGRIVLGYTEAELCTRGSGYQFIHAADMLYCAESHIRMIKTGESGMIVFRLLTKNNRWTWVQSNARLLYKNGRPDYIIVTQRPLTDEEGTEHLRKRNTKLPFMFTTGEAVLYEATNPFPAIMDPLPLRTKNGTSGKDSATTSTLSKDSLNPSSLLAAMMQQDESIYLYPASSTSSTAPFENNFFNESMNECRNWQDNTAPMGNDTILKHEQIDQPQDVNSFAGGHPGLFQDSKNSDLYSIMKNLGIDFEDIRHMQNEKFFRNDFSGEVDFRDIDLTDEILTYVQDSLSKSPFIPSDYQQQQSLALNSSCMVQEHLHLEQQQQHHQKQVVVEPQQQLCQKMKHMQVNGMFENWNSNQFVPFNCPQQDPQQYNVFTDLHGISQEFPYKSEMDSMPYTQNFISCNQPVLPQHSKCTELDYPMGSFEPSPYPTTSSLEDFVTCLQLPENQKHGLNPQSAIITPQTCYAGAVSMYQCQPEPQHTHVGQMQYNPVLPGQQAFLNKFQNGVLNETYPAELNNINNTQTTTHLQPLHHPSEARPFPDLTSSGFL
Method: AhR activation is also measured in human skin cells such as normal human keratinocytes (NHK cells) or A431 epidermoid cells stably transfected with the lentivector plox-XRE TATA-Luc. The NHK cells are cultured in a specific keratinocyte SFM medium (Gibco)+penicillin+streptomycin. At D0, the NHK cells are seeded into 6-well plates in a proportion of approximately 15,000 cells/cm^2. After 24 h, the medium is replaced with fresh medium and the cells are transduced with the lentivector plox-XRE TATA-Luc. After 48 h, the cells are subcultured and maintained in culture, and tested for their reactivity to 3-phenyl-1H-benzo[f]chromen-1-one. The tests are carried out using the luciferase reporter assay system kit from Promega. At D0, the cells are seeded at a density of approximately 60% confluence, and then treated, at D1, with the test substance diluted to various concentrations in the appropriate culture medium. At D2, the cells are lysed in CLB buffer, and the lysate is clarified by centrifugation for 5 min at 10 000 g. The luciferase activity is measured in 20 microliters of lysate as recommended by the supplier, using the luminoskan luminometer (Thermo). […] Data is processed and EC50's can be calculated from standard data monitoring software.

[2] = target: T1, Aryl Hydrocarbon Receptor; experiment: AhR activation, luciferase reporter (plox-XRE TATA-Luc) in HEP G2 cells; format: cell-based; settings: 24 h, 1-10 uM
Method: AhR activation is measured in HEP G2 cells (hepatocytes, Hep G2 is a human liver carcinoma cell line) stably transfected with the lentivector plox-XRE TATA-Luc. The Hep G2 cells are cultured in a growing media consisting of DMEM (Gibco)+10% fetal bovine serum+penicillin+streptomycin. At D0, the Hep G2 cells are seeded into 12-well plates in proportions of approximately 30,000 cells/cm^2. After 24 h, the medium is replaced with fresh medium and the cells are transduced with the lentivector plox-XRE TATA-Luc. After 48 h, the cells are subcultured and maintained in culture, and tested for their reactivity to 3-phenyl-1H-benzo[f]chromen-1-one. The tests are carried out using the luciferase reporter assay system kit from Promega. At D0, the cells are seeded at a density of approximately 60% confluence, and then treated, at D1, with the test substance diluted to various concentrations in the appropriate culture medium. At D2, the cells are lysed in CLB buffer, and the lysate is clarified by centrifugation for 5 min at 10 000 g. The luciferase activity is measured in 20 microliters of lysate as recommended by the supplier, using the luminoskan luminometer (Thermo). […] Data is processed and EC50's can be calculated from standard data monitoring software.

CYP1A1 [3] = experiment: CYP1A1 activity test (P450-GLO) in HEP G2 or NHK cells; format: cell-based, human; settings: 24 h, 1-10um, control compound
Method: The essential methodology for culture and handling of HEP G2 cells and NHK cells has been described in Examples 2 and 3. The tests are carried out using the P450-GLO assay kit from Promega. At D0, the cells are seeded at a density of approximately 60% confluence, and then treated at D1 with the test substance diluted to various concentrations in the appropriate culture medium. At D2, the CYP1A1 activity is measured as recommended by the supplier, using the non-lytic protocol on a cell monolayer.

sebaceous glands = experiment: Mouse ear assay for determination of sebaceous gland prevalence; format: in vivo, C57BL/6J male mice; settings: 0.7% in DMSO:acetone 50:50, 80 ul dermal twice a day for five days, vs controls
Method: C57BL/6J male mice (Harlan Models), approximately 4-5 weeks of age, body weight 20-30 g, were acclimatized (individually housed) for 5 days in a 12 hour light/dark cycle standard laboratory environment (T=20-24° C., relative humidity 30-70%, 15-20 air changes per hour) with access to water and standard rodent chow (Harlan Teklad 2014C supplied by Harlan Laboratories Models, S.L.) ad libitum. […] All animals were monitored daily for reaction to the treatment, signs of illness, and behavioral changes. Body weights were recorded before the first administration and immediately prior to sacrifice. Approximately 12 to 16 hours after the final administration on day 5 the mice were sacrificed by i.p. injection of sodium pentobarbital (200 mg/kg) and the ears were collected. Each ear was sectioned into two halves. For each animal, one-half of one ear was fixed, in neutral phosphate-buffered 4% formaldehyde solution (4% formalin). This trimmed section of the ear was then processed, embedded in paraffin wax and stored at room temperature. The remaining half of that ear and the entire opposite ear was frozen at −80° C. Wax mounted ear pieces were sectioned with a microtome and stained with hematoxylin and eosin. Sebaceous glands were identified visually by their structures. […]

CYP1A1 [4] = experiment: Induction of Cyp1A1 in HEP G2 cells (EROD assay); format: cell-based; settings: human, probe 7-ethoxyresorufin (8 μM), HepG2 cells, 1-10 μM range, vs solvent
Method: The essential methodology for culture and handling of HEP G2 cells and NHK cells has been described in Examples 2 and 3. HepG2 cells are seeded at between 1×10^4 and 2.5×10^4 cells/well in a 96-well microtitre plate. […] The formation of resorufin is quantified by fluorometry with a fluorescence plate reader. Fluorescence is determined at λex 570 nm and λem 590 nm. The amount of resorufin is calculated from a standard curve generated using 0 to 1 μM resorufin in water at ½ log dilutions. The remaining (i.e. all cells present at the beginning of analysis, since only supernatant is taken to assay EROD) live cells are subsequently utilized for the MIT cytotoxicity assay. MTT is made up in serum-free medium at 5 mg/ml. then added to the cells giving a final concentration of 10% (0.5 mg/ml MTT final) then incubated for 2 h. The medium is carefully removed, then MTT formazan is solubilized by adding 200 μl of DMSO and subsequently mixed on a plate shaker. The absorbance is measured spectrophotometrically at 550 nm and background absorbance at 690 nm is subtracted. A standard curve generated using MTT formazan (dissolved in DMSO) from 0-200 μM (0, 2, 5, 10, 20, 50, 100, 200 μM) is used to calculate the final experimental values which are then expressed as (μmol resorufin/mol MIT formazan) or as fold-induction compared to solvent.

| induction (luciferase activity) [1] | induction of the luciferase activity [2] | induction of the CYP1A1 activity (CYP1A1 [3]) | fold induction at 24 h (CYP1A1 [4]) | SMILES | number of differentiated sebocytes (sebaceous glands) | number of sebaceous glands (sebaceous glands) |
| --- | --- | --- | --- | --- | --- | --- |
| significant induction | significant induction | significant induction | – | O=c1cc(-c2ccccc2)oc2ccc3ccccc3c12 [3-phenyl-1H-benzo[f]chromen-1-one] | – | – |
| – | – | – | > 20 | O=c1c2ccccc2oc2cc3ccccc3cc12 [compound A] | reduction | clear reduction |
